# Assay results: US8853264B2, “Use of lignan compounds for treating or preventing inflammatory disease” (Newtree Industry Co., Ltd., priority 2005, dated 2014)
# Tests used:
# IL-13 mRNA = IL-13 mRNA level in skin lesion (RT-PCR); assay type: in vivo, NC/Nga mice
# Experimental: In order to induce atopic dermatitis, 100 mg of mite antigen cream was applied on the ear, occipital region and back of NC/Nga mouse (9 to 11 weeks old), except for the negative control group, 3 times a week, 2 hours after the application of 4% SDS solution. Three weeks later, it was observed whether atopic dermatitis was induced by checking skin rash, erythema, cornification, or the like. Atopic dermatitis was induced in all groups except for the negative control group. […] Transepidermal water loss (TEWL), skin hydration and erythema index were measured one day before the end of the test. […]
# After the end of the experiment, skin tissue was isolated from the occipital region to the back of the mouse, immersed in liquid nitrogen, pulverized using a mortar, dissolved in 500 μL of TRIzol® (InvitrogenLife Technologies, USA), and then homogenized using a homogenizer in order to measure mRNA level of cytokines in skin lesion. […] After the centrifuge, the supernatant was discarded and the remaining pellets were washed 2 times with 100% ethanol, dried, and then subjected to RNA quantification by spectrophotometry. […]
# [1] = test system: edemas of the rat ears induced by TPA; test: TPA-induced rat ear edema inhibition test; assay type: in vivo, Wistar rats; conditions: for Edema thickness: topical in acetone 30 min after TPA, measured after 8 hours
# Experimental: The anti-inflammatory activity of the lignan compound isolated and purified in <Example 1> was tested in animal models. The anti-inflammatory activity was measured by edema inhibition test on rats. As the test animals, 5-week-old Wistar rats (DaeHan Biolink Co., Ltd, Korea) were used. The animals were provided with standard pellet forming rat feed (Cheiljedang Corporation, Korea) and given freely to feed and water. Also, the animals were housed in conditions of 12-hr light/12-hr dark cycle, temperature of 25±2° C. and humidity of 60±10%. Inflammation inducing agent TPA (12-O-tetradecanoylphorbol-13-acetate; Sigma) was dissolved in acetone to a concentration of 200 μg/mL. The edemas of the rat ears were induced by applying the TPA solution locally to each of the outer and inner faces of the ear in an amount of 10 μl/ear (4 μg/ear). The macelignan purified in <Example 1> and non-steroidal anti-inflammatory drug indomethacin as a control substance were dissolved in acetone and used in amounts of 20, 200 and 2000 μg/ear. Each of the macelignan and the indomethacin was applied locally to the rat ears at 30 minutes after treatment with TPA. A control group was locally applied with acetone. The thickness of the rat ears was measured with a caliper 8 hours after treatment with each of the substances. An increase in the ear thickness in the group treated with the sample was compared to that of the group untreated with the sample, and inflammation inhibitory effect was measured by calculating percent edema inhibition.
# [2] = Toxicity in oral administration to rats; conditions: rat, in vivo, read-out: 50% lethality (LD50)
# Experimental: The inventive lignan compound was tested for toxicity in oral administration to rats, and as a result, it was observed that the 50% lethality (LD50) was more than 2,000 mg/kg.
# [3] = test system: inflammatory cells, mast cells, eosinophils; test: Skin staining (H&E, Toluidine blue, Congo red), atopic dermatitis model; assay type: in vivo, NC/Nga mice
# Experimental: 8-week-old NC/Nga mice (20-25 g) were purchased from Chungang Lab. Animal. After adapting for 1 week, the NC/Nga mouse was anesthetized with 90% ethyl ether (Ducsan, Korea) and hair was removed from the occipital region and the back of the mouse using depilatory cream (Reckitt Benckiser, France). After allowing micro wound healing for a day, 100 mg of mite antigen cream (Biostir, Inc. Japan) comprising Dermatophagoides farina, which causes atopic dermatitis, as a main ingredient was evenly applied on the ear, occipital region and back, 3 times a week (for 5 weeks, from week 9 to week 13). 2 hours before application of the mite antigen cream, 4% SDS solution was applied at the same area to increase transdermal absorption of the mite antigen cream by inducing the breakdown of skin fats and cuticle layer. From week 3 following the application, IgE value was measured to quantitate the degree of atopic dermatitis. Also during the drug treatment period (week 12 to week 13), 100 mg of the mite antigen cream was applied 3 times a week to prevent spontaneous healing of the atopic dermatitis.
# In order to induce atopic dermatitis, 100 mg of mite antigen cream was applied on the ear, occipital region and back of NC/Nga mouse (9 to 11 weeks old), except for the negative control group, 3 times a week, 2 hours after the application of 4% SDS solution. Three weeks later, it was observed whether atopic dermatitis was induced by checking skin rash, erythema, cornification, or the like. Atopic dermatitis was induced in all groups except for the negative control group. For drug treatment and evaluation of therapeutic effect, mice were grouped into 12 groups, 6 oral administration groups and 6 topical application groups (each consisting of negative control group, positive control group, macelignan low conc. group, macelignan high conc. group, nutmeg extract low conc. group, and nutmeg extract high conc. group), with n=5 per cage. During the following drug treatment and evaluation period of 2 weeks (12 to 13 weeks old), the negative control groups, which had not been treated with 4% SDS solution and mite antigen cream, were treated with physiological saline (oral administration group) or base cream (topical application group) every day, and the positive control groups, which had been treated with 100 mg of mite antigen cream 2 hours after application of 4% SDS solution, 3 times every week, were treated with physiological saline (oral administration group) or base cream (topical application group). The oral administration groups were treated with 100 mg of mite antigen cream 2 hours after application of 4% SDS solution, 3 times every week, and were treated with macelignan or nutmeg extract at low concentration (50 mg/kg/day) or high concentration (150 mg/kg/day) every day. The topical application groups were treated with 100 mg of mite antigen cream 2 hours after application of 4% SDS solution, 3 times every week, and were treated with macelignan cream or nutmeg extract cream at low concentration (20 mg/kg/day) or high concentration (60 mg/kg/day) every day. Transepidermal water loss (TEWL), skin hydration and erythema index were measured one day before the end of the test. Serum was obtained by retro-orbital blood sampling. After the end of the test (14 weeks old) spleen and skin tissues from occipital region and back were sampled and stored at −70° C. ALN (axillary lymph node) was stored in DMEM containing 2% FBS (fetal bovine serum). The skin tissues were stored in 10% formalin solution.
# After the end of the experiment, skin was isolated from the occipital region. Hematoxylin/eosin (H&E) staining was performed to examine change of inflammatory cells such as mast cells, neutrophils, eosinophils, etc. in the epidermis, dermis and keratinocytes and change of skin thickness. Toluidine blue staining was performed to selectively stain the mast cells, and congo red staining was performed to selectively stain the eosinophils.
# [4] = oral administration 50 and 150 mg/kg
# [5] = topical application 20 and 60 mg/kg
smiles,measurement,setting,value
"COc1cc(C[C@H](C)[C@H](C)Cc2ccc3c(c2)OCO3)ccc1O (single isomer, unassigned) [macelignan]",IL-13 mRNA level in skin lesion,IL-13 mRNA; [4],statistically significant effect of decreasing IL-13 mRNA level
same,IL-13 mRNA level in skin lesion,IL-13 mRNA; [5],effect of decreasing IL-13 mRNA level
same,Edema inhibition,[1]; dose 20 μg/ear,36.7%
same,Edema thickness,[1]; dose 20 μg/ear,157 ± 9 μm
same,Edema inhibition,[1]; dose 200 μg/ear,60.5%
same,Edema thickness,[1]; dose 200 μg/ear,98 ± 6 μm
same,Edema inhibition,[1]; dose 2000 μg/ear,79.0%
same,Edema thickness,[1]; dose 2000 μg/ear,52 ± 4 μm
same,percent edema inhibition compared with indomethacin,[1]; local application on rat ears,higher than that of currently commercially available anti-inflammatory drug indomethacin
same,rat edema induced by TPA (result in words),[1]; local application on rat ears,inhibited the formation of edema in a concentration-dependent manner
same,LD50,[2],> 2000 mg/kg
same,Congo red staining: eosinophils,[3]; [4],effect of decreasing eosinophils
same,H&E staining: inflammatory cells and epidermal thickness,[3]; [4],effect of decreasing inflammatory cells and increased epidermal thickness
same,Toluidine blue staining: mast cells,[3]; [4],effect of decreasing mast cells
same,Congo red staining: eosinophils,[3]; [5],effect of decreasing eosinophils
same,H&E staining: inflammatory cells and epidermal thickness,[3]; [5],effect of decreasing inflammatory cells and increased epidermal thickness
same,Toluidine blue staining: mast cells,[3]; [5],effect of decreasing mast cells
